# Experimental data: BindingDB's records for doi:10.1186/s12858-015-0048-3 (Texas Wesleyan University, 2015)
# Where “and” joins values, the source holds several entries; their conditions need not be identical. Identical values can stand only once.
# Molecular target: T1, Dual specificity protein phosphatase 5 [180-384] (Homo sapiens, UniProt Q16690)
# T1 construct: 180-384
# T1 sequence (Q16690 whole entry): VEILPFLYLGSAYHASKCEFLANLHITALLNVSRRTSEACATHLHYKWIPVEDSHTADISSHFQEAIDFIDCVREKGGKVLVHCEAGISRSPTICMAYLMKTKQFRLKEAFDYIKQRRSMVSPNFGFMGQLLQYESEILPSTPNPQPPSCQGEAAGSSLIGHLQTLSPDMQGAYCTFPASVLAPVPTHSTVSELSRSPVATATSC
# Test: p-NPP Assay
# Details: 25 °C
# Method: For the 96-well plate validation assay, sodium orthovanadate (Sigma Aldrich) was utilized as a positive control for inhibition [Swarup et al., Biochem. Biophys. Res. Commun., 107:1104-9] at a final concentration of 10 μM, to completely block DUSP5(WT) enzymatic activity. All plate assays were performed in standard 96-well clearbottom plates (Thermo Scientific Nunc) with a total assay volume of 200 μL, using a SpectraMax M5 Microplate Reader (Molecular Devices). The plate validation assay was performed with replicate columns of positive control wells, negative control wells and blank wells. Blank columns contained only buffer and pNPP. Negative control (uninhibited) contained buffer, pNPP, and DUSP5PD(WT); and, positive control contained the same components,but also contained 10 μM sodium orthovanadate. The plate was then shaken and allowed to equilibrate in the spectrophotometer at 25 °C for 30 min. After incubation, 4 μL of a 50 μM enzyme stock was dispensed into appropriate wells utilizing a single-channel pipette. This produced a final enzyme concentration of1 μM. Before a read was taken, the plate was shaken for five seconds. The initial rate for the DUSP5PD(WT) reaction was linear for approximately 90 min;and, the plate was kept in the spectrophotometer at 25 °C for an additional 80 min after the kinetic read. The endpoint reading was subsequently taken at 90 min after initiation of reaction.
smiles,measurement,value
O=S(=O)(O)c1ccc2[nH]c3c(S(=O)(=O)O)cc(S(=O)(=O)O)cc3c2c1 [RR505],IC50,5.1 mM and 26 mM
"O=S(=O)(O)c1ccc2c(S(=O)(=O)O)cc(S(=O)(=O)O)cc2c1 [naphthalene-1,3,6-trisulfonate(3-)]",IC50,6.4 mM
Cc1ccc(C(=O)Nc2ccc(S(=O)(=O)O)c3cc(S(=O)(=O)O)cc(S(=O)(=O)O)c23)cc1NC(=O)c1cccc(NC(=O)Nc2cccc(C(=O)Nc3cc(C(=O)Nc4ccc(S(=O)(=O)O)c5cc(S(=O)(=O)O)cc(S(=O)(=O)O)c45)ccc3C)c2)c1 [Suramin hexasodium],IC50,0.044 mM
